The subject of assay [1] is Rhodococcus rhodochrous NCIMB 40757 nitrilase. Put plainly: Nitrilase kinetics of whole cells (acrylonitrile to ammonium acrylate). In kind it is biochemical. As to conditions: for Km: 30° C. The method, then:
A novel nitrilase is characterised by having Km for acrylonitrile below 500 μM. Throughout this specification Km refers to Km measured at pH 7.0. […] In particular we use the conditions of Example 6 below. […] Microbial., 135 3153-3164 and those described for lactate dehydrogenase by Wagner (1990) Tibtech., 8, 263-270 will yield nitrilase having Km values up to 60 or 100, or perhaps 300 μM, and Km values down to. 9.4 and even 3.8 μM.
A novel nitrilase of the invention is characterised by having Ki for ammonium acrylate of at least 100 mM, preferably at least 150 or 200, more preferably at least 250 mM. Throughout this specification Ki refers to Ki measured at pH 7.0. […] Preferably measurement is under the conditions given in Example 7 below. […] It is envisaged that standard techniques and selection procedures, eg mutagenesis, will yield nitrilase having Ki for ammonium acrylate up to 300 mM or even 800 mM or greater.
The cells of the Rhodococcus rhodochrous strain grown as described in Example 1 were suspended in solutions of 50 mM pH 7 sodium phosphate buffer at 30° C. containing the concentrations of acrylonitrile shown in the table below. Samples were taken over time to determine the acrylonitrile, acrylamide and ammonium acrylate concentrations in the cell suspensions.
The cells of the Rhodococcus rhodochrous strain grown as described in Example 1 were suspended in solutions of 1.2 M ammonium acrylate at 30° C. containing the concentrations of acrylonitrile shown in the table below. Samples were taken over time to determine the acrylonitrile, acrylamide and ammonium acrylate concentrations in the cell suspensions.

For assay [2], the system named is Fusarium oxysporum f.sp. melonis nitrilase. As to conditions: read-out: Km (acrylonitrile), cited from earlier work.
Assay [3] addresses T1, Rhodococcus rhodochrous K22 nitrilase (Rhodococcus rhodochrous, UniProt Q02068).
T1 sequence (Q02068 1-383): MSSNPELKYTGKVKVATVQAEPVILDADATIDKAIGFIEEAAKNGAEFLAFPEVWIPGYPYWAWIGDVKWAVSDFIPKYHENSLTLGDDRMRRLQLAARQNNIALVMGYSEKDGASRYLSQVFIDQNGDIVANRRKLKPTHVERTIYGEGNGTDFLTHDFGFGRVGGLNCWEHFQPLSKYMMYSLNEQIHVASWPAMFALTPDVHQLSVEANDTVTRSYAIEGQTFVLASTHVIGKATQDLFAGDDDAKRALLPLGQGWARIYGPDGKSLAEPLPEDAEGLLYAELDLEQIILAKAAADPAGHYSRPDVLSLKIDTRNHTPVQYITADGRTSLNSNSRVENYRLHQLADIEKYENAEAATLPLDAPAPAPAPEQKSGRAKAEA
As to conditions: read-out: Km (acrylonitrile); reported in J. Bacteriol. 172, 9, 4807-4815; cited from earlier work.

The structures appear in SMILES notation. Like-named read-outs stand apart in the source and are kept apart here.

Usually Km stands for the substrate concentration at which the rate is half of its maximum.

For the compound `C=CC(=O)O` [ammonium acrylate], the “ratio (Ki for ammonium acrylate)/(Km for acrylonitrile)” value in assay [1] (initial experiments) was “greater than 10000”.
For `C=CC#N` [acrylonitrile], the Michaelis constant (Km) in assay [2] (Goldlust and Bohak (1989)) is 17000 µM; in assay [2] (reported in Biotech. Appl. Biochem., 1989, 11, 581-601), 17000 µM; in assay [3], 1140 µM; in assay [1] (whole cell form, 50 mM pH 7 sodium phosphate buffer, read-out: Km for acrylonitrile), 30.6 µM; in assay [1] (whole cells in 1.2 M ammonium acrylate, read-out: apparent Km (acrylonitrile) in 1.2 M ammonium acrylate), 145 µM.

The values above are taken from US5998180A, “Nitrilase from Rhodoccus rhodochrous for converting acrylonitrile directly to acrylic acid” (priority 1995, dated 1999).
